2 molecules from patent US20240010639A1, “TRIAZINE DIONE DERIVATIVE, PREPARATION METHOD THEREFOR AND APPLICATION THEREOF IN MEDICINE” (Jiangsu Hengrui Pharmaceuticals Co., Ltd., priority 2020, published 2024) can be followed below.

Read-outs that look alike come from different tables or passages of the source.

Series [1] is described as follows: Identification of reactive metabolites (GSH conjugates) in human liver microsomes. It counts as in vitro ADME. The following applies: for Identification of reactive metabolites: Result: human liver microsomes 1 mg/mL, test compound 30 μM, GSH 5 mM, NADPH 1.0 mM, 60 min, 37° C.; for glutathione (GSH) conjugate associated with the compound detected (in words): human liver microsomes, GSH trapping. Here is the method:
The identification of reactive metabolites of the compound disclosed herein in human liver microsomes was carried out using the experimental method below:
• 1. Phosphate-buffered saline (purchased from Shanghai Sangon) • 2. NADPH (ACROS, A2646-71-1) • 3. Human liver microsome (Corning Gentest, Cat No. 452161, Lot No. 905002) • 4. Thermo UHPLC-Q-Exactive Orbitrap mass spectrometer (Thermo Fisher Scientific) • 5. Acquity BEH C18 column, 2.1×100 mm, 1.7 μm (Waters, USA) • 6. Positive control compound (diclofenac).
• 1. Preparation of test compound solutions: A proper amount of a test compound was precisely measured out and dissolved in a proper amount of DMSO. After the solution was well mixed, a 30 mM stock solution was obtained. A […] stock solution was 10-fold diluted with 50% acetonitrile/water (v/v) to obtain a 3.0 mM working solution 1. The 3.0 mM working solution 1 was 10-fold diluted with PBS to obtain a 300 μM working solution 2, and the solution was stored at 4° C. before use. • 2. Preparation of phosphate-buffered saline: Proper amounts of K2HPO4 and KH2PO4 were measured out and dissolved in 4 L of pure water to prepare a 100 mM buffer, and the pH was then adjusted with phosphoric acid or sodium hydroxide to 7.4. • 3. Preparation of liver microsome solutions: Proper amounts of liver microsome stock solutions of various species (20 mg/mL) were measured out and diluted with the 100 mM phosphate-buffered saline (pH 7.4) to prepare 1.43 mg/mL microsome solutions. • 4. Preparation of NADPH cofactor solution: Proper amounts of NADPH and magnesium chloride were measured out and dissolved in a proper amount of the 100 mM phosphate-buffered saline (pH 7.4) so the concentrations of NADPH and magnesium chloride were 10 mM and 30 mM, respectively, and the solutions were stored for later use. • 5. Preparation of glutathione (GSH) solution: A proper amount of glutathione was measured out and dissolved in a proper amount of the 100 mM phosphate-buffered saline (pH 7.4) so the concentration of GSH was 50 mM, and the solution was stored for later use. • 6. The incubation system is shown below:
To a 1.5 mL centrifuge tube, 20 μL of the 300 μM working solution 2 was precisely transferred and 140 μL of a 1.43 mg/mL liver microsome solution was then added so the concentration of liver microsomal protein in the incubation system was 1 mg/mL. […] The collected data were processed and analyzed using Xcalibur software. According to the exact molecular weight, tandem mass spectrometry fragments were analyzed to see if the compound disclosed herein would be metabolically activated to produce reactive metabolites.
Background: Liver microsomes are a subcellular fraction often used to study metabolism.

The nature of series [2]: Pharmacokinetic evaluation in beagles. The note with it: for AUC / half-life / Cmax / MRT / Vd/F / CL/F: both (Example 16), male (MYK-461), beagle, dog, plasma; for AUC: read-out: Area under curve AUC; for half-life: read-out: Half-life T1/2 (converted); for Cmax: read-out: Plasma concentration Cmax; for MRT: read-out: Residence time MRT; for Vd/F: read-out: Apparent volume of distribution Vz/F; for CL/F: read-out: Clearance CL/F. It counts as in vivo. Here is the method: With beagles as test animals, the plasma concentrations of the test compounds were measured by LC/MS/MS at different time points after intragastric administration and intravenous injection. The pharmacokinetic performance of the compound disclosed herein was studied in beagles and its pharmacokinetic profile was evaluated.
Pharmacokinetics of the compound of Example 16 in beagles: 8 beagles, an equal number of males and females, divided into 2 groups of 4, provided by Shanghai Medicilon Inc. Pharmacokinetics of compound MYK-461 in beagles: 6 beagles, male, divided into 2 groups of 3, provided by Shanghai Medicilon Inc.
A certain amount of the compound of Example 16 was measured out, and 5% DMSO, 30% PG, 30% PEG400 and 35% normal saline were added to prepare a clear solution.
A certain amount of compound MYK-461 was measured out, and 5% DMSO, 20% PG, 20% PEG400 and 55% normal saline were added to prepare a clear solution.
Beagles were fasted overnight and then given compounds by intragastric administration and intravenous injection at doses of 2 mg/kg and 0.5 mg/kg, respectively, and at volumes of 5 mL/kg and 2 mL/kg, respectively.
1.0-mL blood samples were collected from the jugular veins or forelimb veins of the animals in the intragastric administration group before administration and 0.25 h, 0.5 h, 1.0 h, 2.0 h, 4.0 h, 6.0 h, 8.0 h, 12.0 h and 24.0 h after administration, placed into EDTA-K2 anticoagulant tubes, and centrifuged at 10,000 rpm for 5 min (4° C.), and plasma was isolated within 1 h and stored at −80° C. before analysis. The blood collection to centrifugation process was performed under ice bath conditions. Three hours after administration, feeding was resumed.
Blood samples were collected from the animals in the intravenous injection group before administration and 5 min, 0.25 h, 0.5 h, 1.0 h, 2.0 h, 4.0 h, 8.0 h, 12.0 h and 24.0 h after administration and processed as in the intragastric administration group.
Determination of plasma concentrations in beagles after intragastric administration and intravenous injection of different concentrations of test compounds: 30 μL of beagle plasma at each time point post-dose was mixed with an internal standard solution (internal standard for the compound of Example 16: 100 ng/mL warfarin; internal standard for compound MYK-461: 100 ng/mL tolbutamide) and 300 μL of methanol; the mixture was vortexed for 1 min and centrifuged at 18,000 g for 7 min, and 200 μL of the supernatant was transferred to a 96-well plate; 1 μL of the supernatant was taken for LC/MS/MS analysis.

The mark [3] stands for this setting: intravenous injection, 0.5 mg/kg.
Where [4] appears, read: po, intragastric administration, 2 mg/kg.

As for `Cc1ccc(F)c([C@H](C)Nc2nc(=O)n(C3CCOCC3)c(=O)[nH]2)c1` [Example 16, (S)-6-((1-(2-Fluoro-5-methylphenyl)ethyl)amino)-3-(tetrahydro-2H-pyran-4-yl)-1,3,5-triazine-2,4(1H,3H)-dione], in series [1], the “Identification of reactive metabolites: Result” value was “Negative” and the “glutathione (GSH) conjugate associated with the compound detected (in words)” value was “no glutathione (GSH) conjugate”. In series [2], the “T1/2 comparison (in words)” value is reported as “significantly shorter T1/2” and the “absorption profile (in words)” value was “good absorption profile”. In series [2] (setting [3]), the AUC was 716 ng·h/mL, the half-life was 5.6 h, the Cmax is 1080 ng/mL and the MRT turned out to be 7.5 h. In series [2] (setting [3]), the “Apparent volume of distribution Vz/F” value came out at 5.022 L/kg and the “Clearance CL/F” value amounted to 10.4 mL/min/kg. Also, in series [2] (setting [4]), the Vd/F amounted to 6.05 L/kg, the AUC was 3100 ng·h/mL, the CL/F came out at 9.26 mL/min/kg and the half-life was 7.5 h. In series [2] (setting [4]), the Cmax came out at 1540 ng/mL and the mean residence time MRT was determined as 9.5 h.
For `CC(C)n1c(=O)cc(N[C@@H](C)c2ccccc2)[nH]c1=O` [MYK-461, reference compound], in series [1], the “Identification of reactive metabolites: Result” value is given as “Positive” and the “glutathione (GSH) conjugate associated with the compound detected (in words)” value is listed as “detected”. Also, the “T1/2 comparison (in words)” value in series [2] is “longer T1/2”. Also, in series [2] (setting [3]), the AUC amounted to 1380 ng·h/mL, the half-life is 47.2 h, the Cmax was 215 ng/mL and the mean residence time MRT stood at 72.2 h. Besides, in series [2] (setting [3]), the “Apparent volume of distribution Vz/F” value was found to be 6.308 L/kg and the “Clearance CL/F” value is listed as 1.63 mL/min/kg. Moreover, in series [2] (setting [4]), the Vd/F was 3.9 L/kg, the area under the curve (AUC) came to 8720 ng·h/mL, the CL/F turned out to be 1.48 mL/min/kg and the half-life was 38.9 h. In series [2] (setting [4]), the Cmax came out at 1440 ng/mL and the MRT is 59.2 h.

Usually AUC stands for the area under the concentration-time curve, a measure of exposure. By MRT is commonly meant a mean duration of stay, worked out from the concentration-time curve.
